Results on 2 compounds are retold here after patent US11583588B2, “Modular self assembly disassembly (SADA) technologies” (MEMORIAL SLOAN KETTERING CANCER CENTER, priority 2017, dated 2023).

Series [1] in a line: Clearance of unbound injected Bn-DOTA in a tumor free mouse. The series is classed as in vivo. The conditions noted are these: within four hours. The procedure: In a tumor free mouse, over 99% of unbound injected Bn-DOTA typically clears from the murine serum within four hours, with the vast majority of it being excreted in the urine within the first 30 minutes. In contrast, previous studies have shown that between 3 to 5% of directly labeled IgG will remain in the blood 48 hours after injection. (Azzopardi, N. et al. (2011) Clin Cancer Res 17, 6329-6337).

Series [2] can be described thus: Blood and tumor activity after P53-BiDE(noHIS) and 177Lu-Bn-DOTA administration (FIG. 6A, 6D, 6E). Format: in vivo, mice. The conditions noted are these: 177Lu-Bn-DOTA only. Here is the method: FIG. 6A to FIG. 6E depict pharmacokinetics of exemplary SADA-BiDE constructs in vivo. FIG. 6A depicts activity over time after P53-BiDE(noHIS) and Bn-DOTA administration. Each line represents one group, with three mice per group. Triangles denote a group that received P53-BiDE(noHIS) followed by clearing agent (CA) 72 hours later. Squares denote a group that received P53-BiDE(noHIS) without any clearing agent before ^177Lu-Bn-DOTA administration. Circles denote a group that only received ^177Lu-Bn-DOTA but not any SADA-BiDE. Dashed lines correspond to the measured blood activity, while solid lines correspond to the activity measured in the tumor. […] FIG. 6B depicts blood activity of radiolabeled 131I-SADA-BiDE in tumor-free mice. Activity measurements were normalized to the initial measurement for each group. Each line represents one group, with 4-5 mice per group. (+) symbols denote P53-BiDE, (X) symbols denote P63-BiDE and circles denote P73-BiDE. […]
Importantly, even though, as described in the previous examples, P53-BIDE(NOHIS), P53-BiDE, P63-BiDE and P73-BiDE is rapidly cleared from the serum, total tumor uptake of was not affected. With both 24 hours and 72 hours between P53-BIDE(NOHIS) and ^177Lu-Bn-DOTA injections, significant activity (˜15% ID/g) was measured at the tumor site (FIG. 6D) […]

The conditions of series [3]: 37° C., cited from earlier work.

Read-outs that look alike come from different tables or passages of the source.

Take `O=C(O)CN1CCN(CC(=O)O)CCN(CC(=O)O)C(Cc2ccccc2)CN(CC(=O)O)CC1` (stereo not shown) [Bn-DOTA, Benzyl-1,4,7,10-tetraazacyclododecane-1,4,7,10-tetraacetic acid, reference compound]: the “unbound injected Bn-DOTA cleared from murine serum” value in series [1] is given as “over 99%”. Also, in series [2], the “tumor activity, Bn-DOTA alone without SADA-BiDE” value is “no tumor activity was detected”.

For the compound “Tetramerization domain of p53 (residues 321-359): Human p53 tetramerization domain (321-359), SADA domain; SEQ ID NO: 1”, the Kd is 150 nM in series [3] (read-out: dissociation constant (KD), tetramers dissociating into dimers) and 1 nM in series [3] (read-out: dissociation constant of dimers into monomers).
